From US20240408158A1 (LINYI UNIVERSITY, priority 2023, published 2024)

Experiments:
[1] = test system: mouse bone marrow red cells; conditions: positive control 40 mg/kg BW; P<0.01
Procedure: 3.3 Mammalian red blood cell micronucleus test: 50 healthy, mature mice with weight of 25-30 g were selected, with half male and half female. The mice were randomly divided into 5 groups, 10 mice in each group, and half male and half female in each group. The experiment was conducted with three dose groups of 1.25, 2.5, and 5.0 g/kgBW Samples of 2.5, 5.0, and 10.0 g were weighed and prepared into 40 mL sample solutions using distilled water as the solvent. […] Mice were given test substance by oral gavage at a volume of 20 mL/kgBW, gavaged twice with an interval of 24 hours. Six hours after the second gavage, the animals were euthanized due to cervical dislocation. Sternal bone marrow was taken and made into bone marrow slices, fixed with methanol, and stained with Giemsa.
2000 polychromatic erythrocytes in each animal were observed and a frequency of micronucleus polychromatic erythrocytes (namely, micronucleus frequency) was counted, expressed in thousandths.

[2] = test system: mice with hyperuricemia induced by fructose and yeast diet; experiment: Model of hyperuricemia induced by fructose and yeast diet, serum uric acid; assay type: in vivo
Text: 1. Experimental animal: […] At the Experimental Animal Center of Qingdao University, all mice were placed in pathogen free facilities, maintained at appropriate temperature and relative humidity, followed by a 12-hour light and dark cycle, they freely ate and drank and clean bedding was replaced daily. 3. Method of modeling: 36 Balb/c male mice were divided into 6 groups, with 6 mice in each group. They were: […] Dissolving allopurinol and Antarctic red pigment in double distilled water and mixing well. […] Weights of each group of mice from day 0 onwards were recorded. 5. Uric acid testing: At Sam on days 14, 21, 28, and 35, mice were fasted for 12 hours and blood samples from the posterior orbital venous plexus of the mice were collected for uric acid testing. After the blood collection was completed, the blood was left at room temperature for one hour and centrifuged at a speed of 3000 rpm for 5 minutes to obtain a light-yellow upper serum.

mice with hyperuricemia = experiment: Model of hyperuricemia induced by high purine (yeast extract plus oteracil potassium); assay type: in vivo; conditions: allopurinol treatment group 20 mg/kg gavage, 7 days, 5 mice per group
Text: 1. Experimental animal: Balb/c male mice, 6-8 weeks old, with weigh of 16-18 g were purchased from Sperford (Beijing) Biotechnology Co., Ltd. At the Experimental Animal Center of Qingdao University, all mice were placed in pathogen free facilities, maintained at appropriate temperature and relative humidity, followed by a 12-hour light and dark cycle, they freely ate and drank, and clean bedding was replaced daily.
3. […] From Day 5 to Day 7, except for the blank control group, the other four groups were given 0.1 ml (6 mg/animal) of oteracil potassium by intraperitoneal injection.

[3] = after 14 days, Allopurinol group 20 mg/kg

SMILES	micronucleus frequency compared with negative control group [1]	uric acid level ([2]; 21st day, Allopurinol group 20 mg/kg)	uric acid level ([2]; 28th day, Allopurinol group 20 mg/kg)	uric acid level ([2]; 35th day, Allopurinol group 20 mg/kg)	increase of uric acid level compared with the control group [2, 3]	uric acid level lower than in the High uric acid model group [2, 3]	uric acid level ([2]; after 14 days, Allopurinol group 20 mg/kg gavage once a day)	deaths (mice with hyperuricemia)
O=P1(N(CCCl)CCCl)NCCCO1 (centres unmarked) [cyclophosphamide]	significantly higher	–	–	–	–	–	–	–
Oc1ncnc2[nH]ncc12 [allopurinol]	–	247.2 ± 48.98 µmol/L	264.9 ± 54.87 µmol/L	215.8 ± 37.132 µmol/L	24.67%	30.39%	191.5 ± 21.95 µmol/L	no deaths
